# Assay results published in patent US12226432B2, “Polymer nanoparticle, polymer composition, method of making a polymer nanoparticle, method for treatment of bacterial biofilms, and method for detection of bacterial biofilms” (UNIVERSITY OF MASSACHUSETTS, priority 2016, dated 2025).
# Key:
# [1] = system: uropathogenic E. coli (CD-2); assay type: cell-based; conditions: serial passaging at sub-MIC, CD-2 E. coli
# Experimental: The culture was then harvested and tested for MIC as describe above. E. coli CD-2 was cultured without polymer as well every time as a control for comparison of MICs.
# Bacteria are capable of acquiring resistance quickly towards antibiotics and other antimicrobials, minimizing their therapeutic prospects in clinical settings. […] The resulting bacterial population was defined as the first generation, harvested, and its MIC was evaluated. Subsequently, a second generation was produced by exposing first generation with 66% MIC dosage of polymers. […] Similar experiments were conducted on ciprofloxacin (quinolone) and ceftazidime ([…]), clinically relevant antibiotics.
# [2] = system: Pseudomonas aeruginosa CD-40; experiment: Checkerboard titration, antibiotic-nanoparticle synergy, CD-40; assay type: cell-based; conditions: in combination with polymer nanoparticles, FIG. 20
# Experimental: (§1) To assess possible synergy between antibiotics and polymeric nanoparticles, two-dimensional checkerboard titrations were performed using a micro-dilution method. […] The checkerboard titrations were performed in a set of three independent experiments, repeated on different days.
# (§2) Antibiotic-nanoparticle interaction was determined by calculating the fractional inhibitory concentration of antibiotics (FICAb) and NPs (FICNP) according to the following equations: FICAb=(MIC of antibiotic and NP combination)÷(MIC of antibiotic alone) FICNP=(MIC of antibiotic and NP combination)÷(MIC of NP alone) FICIcombination=FICAb+FICNP
# (§3) FICAb was plotted against FICNP. A concave curve indicates synergy, whereas a convex curve indicates antagonism. Synergy was defined as FICI values ≤0.5, antagonism by FICI values >4.0, and additive interaction by FICI values between >0.5 and 4.0. The experiments were conducted across four different planktonic bacteria strains (E. clocae complex “CD-1412”; Pseudomonas aeruginosa “CD-40”; E. coli “CD-549”; and Acinetobacter species “CD-575”). […] In the presence of polymer nanoparticles, colistin's uptake in biofilms is enhanced nearly 3.5 times.
# [3] = system: E. clocae complex CD-1412; experiment: Checkerboard titration, antibiotic-nanoparticle synergy, CD-1412; assay type: cell-based, E. cloacae; conditions: in combination with polymer nanoparticles, FIG. 20
# Experimental: as §1, §2, §3
# [4] = system: Acinetobacter species CD-575; experiment: Checkerboard titration, antibiotic-nanoparticle synergy, CD-575; assay type: cell-based; conditions: in combination with polymer nanoparticles, FIG. 20
# Experimental: as §1, §2, §3
# E. coli CD-549 = experiment: Checkerboard titration, antibiotic-nanoparticle synergy, CD-549; assay type: cell-based; conditions: in combination with polymer nanoparticles, FIG. 20
# Experimental: as §1, §2, §3
# NIH 3T3 fibroblast cells = assay type: cell-based
# Experimental: The ability to eradicate biofilms on human tissue or organs is also of significant importance. An in vitro co-culture model of mammalian fibroblast cells with biofilms grown over them was used. […] Next, P. aeruginosa bacteria was seeded on a confluent monolayer of NIH 3T3 fibroblast cells overnight to generate biofilms prior to treatment.
# red blood cells (RBCs) = experiment: Hemolysis of red blood cells (HC50); assay type: cell-based, human
# Experimental: Determination of Hemolysis of Cationic Polymers: Citrate-stabilized human whole blood (pooled, mixed gender) was purchased from Bioreclamation LLC, NY and processed as soon as received. 10 milliliters of phosphate buffered saline (PBS) was added to the blood and centrifuged at 5000 rpm for 5 minutes. The supernatant was carefully discarded and the red blood cells (RBCs) were dispersed in 10 milliliters of PBS. This step was repeated at least five times. The purified RBCs were diluted in 10 milliliters of PBS and kept on ice during the sample preparation. 0.1 milliliter of RBC solution was added to 0.4 milliliters of polymer solution in PBS in a 1.5 milliliter centrifuge tube (Fisher) and mixed gently by pipetting. RBCs incubated with PBS and water was used as negative and positive controls, respectively. All polymer samples as well as controls were prepared in triplicate. The mixture was incubated at 37° C. for 30 minutes while shaking at 150 rpm. After incubation period, the solution was centrifuged at 4000 rpm for 5 minutes and 100 microliters of supernatant was transferred to a 96-well plate. The absorbance value of the supernatant was measured at 570 nm using a microplate reader (SpectraMax M2, Molecular devices) with absorbance at 655 nm as a reference. The percent hemolysis was calculated using the following formula: […]
molecule,measurement,setting,value
CC(C)(O/N=C(\C(=O)N[C@@H]1C(=O)N2C(C(=O)[O-])=C(C[n+]3ccccc3)CS[C@H]12)c1csc(N)n1)C(=O)O [ceftazidime],increase in the MICs after serial passaging,[1],"4,200 fold"
O=C(O)c1cn(C2CC2)c2cc(N3CCNCC3)c(F)cc2c1=O [ciprofloxacin],increase in the MICs after serial passaging,[1],"33,000 fold"
colistin,antibiotic-nanoparticle interaction (FICI),[2],therapeutically synergistic
same,antibiotic-nanoparticle interaction (FICI),[3],therapeutically synergistic
same,antibiotic-nanoparticle interaction (FICI),[4],therapeutically synergistic
same,antibiotic-nanoparticle interaction (FICI),E. coli CD-549,therapeutically synergistic
poly(oxanorbomeneimide)undecyl trimethylammonium analog [Example 5],toxicity to NIH 3T3 fibroblast cells,NIH 3T3 fibroblast cells,No significant toxicity
same,HC50,red blood cells (RBCs),4700 µg/mL
